Results as given in patent US20220251141A1, “IMMUNOMODULATORS” (Bristol-Myers Squibb Company, priority 2019, published 2022).
pIC50: −log10 of the molar value. Numbered stars: 1 amine (or outer) side, 2 acyl side, 3 side chain; on linkers, the order of the positions; unused ones are H or OH. Bridge positions count the residues as written; N and C are the ends. Square brackets hold non-standard residues; d marks the D form. Peptide text beside a SMILES is read from it. Trp(1-CH2COOH) = N[C@@H](Cc1cn(CC(=O)O)c2ccccc12)C(=O)O; X9 = N#CNCC[C@H](N[*:1])C(=O)[*:2]; X8 = N#CNC[C@H](N[*:1])C(=O)[*:2]; Hyp = O=C(O)[C@@H]1C[C@@H](O)CN1; NMeNle = CCCC[C@H](NC)C(=O)O; NMeA = CN[C@@H](C)C(=O)O

Molecular target: T1, PD-1/PD-L1 (Homo sapiens, UniProt Q9NZQ7)
T1 construct: TVMV protease site linker (C); made in house; host or cells: HEK293T cells
Assay: PD-1/PD-L1 Homogenous Time-Resolved Fluorescence (HTRF) binding assay
Details: PD-L1-His 10 nM final, PD-1-Ig 20 nM final; inhibitors pre-incubated with PD-L1-His for 15 m
Procedure, shortened: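 Compounds pre-incubated 15 min with human PD-L1(18-239)-His (10 nM final), then PD-1(25-167)-Ig (20 nM final) added for 15 min, in dPBS with 0.1% BSA and 0.05% Tween-20. Eu-cryptate anti-Ig (1 nM) and APC anti-His (20 nM) added, 30 min equilibration, 665/620 nm ratio read; IC50 reported.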

pIC50: 8.92
Compound: CCCC[C@H]1C(=O)N(C)[C@@H](CCCC)C(=O)N[C@@H](CC(C)C)C(=O)N[C@H](C(=O)NCC(N)=O)CSCC(=O)N[C@@H](Cc2ccc(O)cc2)C(=O)N(C)[C@@H](C)C(=O)N[C@@H](CC(N)=O)C(=O)N2CCC[C@H]2C(=O)N[C@@H](CNC#N)C(=O)N[C@@H](CC(C)C)C(=O)N2C[C@H](O)C[C@H]2C(=O)N[C@@H](Cc2c[nH]c3ccccc23)C(=O)N[C@@H](CCNC#N)C(=O)N[C@@H](Cc2cn(CC(=O)O)c3ccccc23)C(=O)N1C [Example 1019] ({CH2CO}-Y[NMeA]NP[X8]L[Hyp]W[X9][Trp(1-CH2COOH)][NMeNle][NMeNle]LCG-NH2; thioether N-14)
